Measurements from patent US9403804B2, “Inhibitors of c-fms kinase” (Janssen Pharmaceutica NV, priority 2006, dated 2016).

What was measured:
[1] = test system: mouse bone-marrow derived macrophages (BMDM); assay: CSF-1-driven mouse bone-marrow derived macrophages proliferation assay (BrDU incorporation); format: cell-based; details: 30 hrs culture, read-out: mCSF driven proliferation BMDM (Mouse) IC-50
Procedure: CSF-1-Driven Mouse Bone-Marrow Derived Macrophages Assay
Macrophages are derived by culturing mouse bone marrow in alpha-MEM supplemented with 10% FCS and 50 ng/ml recombinant mouse CSF-1 in bacteriologic dishes. On the sixth day, macrophages are detached from dishes, washed, and resuspended to 0.05 million cells/ml in alpha-MEM containing 10% FCS. One hundred ul of cell suspension are distributed per well into 96 well culture plates. Wells are further supplemented with the addition of 50 ul media containing 15 ng/ml CSF-1, 3 uM Indomethacin, and 3× of a dilution series of test compounds. The cells are cultured for 30 hrs at 37 degrees and 5% CO2. During the final six hours, cultures are supplemented with an additional 30 ul of media containing a 1:500 dilution of bromodeoxyuridine (BrDU). At the end of the culture period, the plates are spun at 1000 RPM for 1 minute and 130 ul of media is removed with a pipet and replaced with 150 ul of fixative solution for 1 hour @ room temperature. The fixative is then dispelled from the plates and the plates allowed to air dry. Incorporation of BrDU into the fixed, dried cells is quantified using a specific ELISA.

c-fms = c-fms (Homo sapiens (Human), UniProt P07333); assay: Autophosphorylation, fluorescence polarization competition immunoassay for c-fms inhibition; format: biochemical; details: averages of three independent measurements; read-out: 1 nM c-fms; peptide Pi assay IC-50
Procedure: Fluorescence Polarization Competition Immunoassay
The assay buffer used was 100 mM 4-(2-hydroxyethyl)piperazine 1-ethanesulfonic acid (HEPES), pH 7.5, 1 mM 1,4-dithio-DL-threitol (DTT), 0.01% (v/v) Tween-20. Compounds were diluted in assay buffer containing 4% dimethylsulfoxide (DMSO) just prior to the assay. […] The kinase reaction was initiated by adding 2 μL of 5 mM ATP (Sigma) in assay buffer. […] Control reactions were ran in each plate: in positive and negative control wells, assay buffer (made 4% in DMSO) was substituted for the compound; in addition, positive control wells received 1.2 μL of 50 mM ethylenediaminetetraaceticacid (EDTA).
The plates were incubated at room temperature for 45 min. At the end of the incubation, the reaction was quenched with 1.2 μL of 50 mM EDTA (EDTA was not added to the positive control wells at this point; see above). Following a 5-min incubation, each well received 10 μL of a 1:1:3 mixture of anti-phosphotyrosine antibody, 10×, PTK green tracer, 10× (vortexed), FP dilution buffer, respectively (all from PanVera, cat. # P2837). The plate was covered, incubated for 30 min at room temperature and the fluorescence polarization was read on the Analyst. The instrument settings were: 485 nm excitation filter; 530 nm emission filter; Z height: middle of well; G factor: 0.93. […] The reported IC50 values are averages of three independent measurements.

Chain of c-fms (P07333 20-972): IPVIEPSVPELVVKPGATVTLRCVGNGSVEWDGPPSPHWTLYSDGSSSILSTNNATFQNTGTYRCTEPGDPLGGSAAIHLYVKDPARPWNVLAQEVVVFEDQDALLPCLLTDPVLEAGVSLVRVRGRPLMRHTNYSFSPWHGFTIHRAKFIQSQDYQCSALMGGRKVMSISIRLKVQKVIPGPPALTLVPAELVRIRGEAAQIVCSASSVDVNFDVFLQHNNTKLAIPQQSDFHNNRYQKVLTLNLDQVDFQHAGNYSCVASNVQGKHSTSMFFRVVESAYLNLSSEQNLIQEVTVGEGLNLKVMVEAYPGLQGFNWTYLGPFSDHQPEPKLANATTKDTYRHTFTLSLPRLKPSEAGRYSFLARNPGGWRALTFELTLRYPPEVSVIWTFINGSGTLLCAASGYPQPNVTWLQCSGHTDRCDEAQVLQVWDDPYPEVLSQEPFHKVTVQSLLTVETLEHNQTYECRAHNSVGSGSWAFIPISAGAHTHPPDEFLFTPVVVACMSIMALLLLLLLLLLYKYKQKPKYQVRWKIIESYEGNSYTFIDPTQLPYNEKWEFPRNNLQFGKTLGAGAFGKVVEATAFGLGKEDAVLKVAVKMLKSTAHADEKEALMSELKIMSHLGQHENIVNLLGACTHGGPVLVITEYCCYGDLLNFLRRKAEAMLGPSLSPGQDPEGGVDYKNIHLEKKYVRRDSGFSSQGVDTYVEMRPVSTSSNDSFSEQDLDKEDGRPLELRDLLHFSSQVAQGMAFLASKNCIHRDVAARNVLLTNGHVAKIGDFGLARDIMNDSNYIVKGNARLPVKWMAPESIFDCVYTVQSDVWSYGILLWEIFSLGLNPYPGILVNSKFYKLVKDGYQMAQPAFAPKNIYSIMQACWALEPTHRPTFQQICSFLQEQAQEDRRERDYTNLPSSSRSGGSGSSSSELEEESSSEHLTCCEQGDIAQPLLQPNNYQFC

| SMILES | IC50 (c-fms) [nM] | IC50 [1] [nM] |
| --- | --- | --- |
| CC1(C)CC=C(c2cc([C@]3(O)CC[C@H](N4CCOCC4)CC3)ccc2NC(=O)c2nc(C#N)c[nH]2)CC1 [Example 45, 4-Cyano-1H-imidazole-2-carboxylic acid [2-(4,4-dimethyl-cyclohex-1-enyl)-4-(cis-1-hydroxy-trans-4-morpholin-4-yl-cyclohexyl)-phenyl]-amide] | – | 8.5 |
| CC1(C)CC=C(c2cc(C3(O)CCCCC3)ccc2NC(=O)c2nc(C#N)c[nH]2)CC1 [Example 1, 4-Cyano-1H-imidazole-2-carboxylic acid [2-(4,4-dimethyl-cyclohex-1-enyl)-4-(1-hydroxy-cyclohexyl)-phenyl]-amide] | 5.9 | 72 |
| CC1(C)CC=C(c2cc([C@]3(O)CC[C@@H](C(=O)O)CC3)ccc2NC(=O)c2ncc(C#N)[nH]2)CC1 [Example 2, 4-[4-[(5-Cyano-1H-imidazole-2-carbonyl)-amino]-3-(4,4-dimethyl-cyclohex-1-enyl)-phenyl]-cis-4-hydroxy-cyclohexanecarboxylic acid] | 0.65 | 87 |
| CC1(C)CC=C(c2cc([C@]3(O)CC[C@@H](N4CCOCC4)CC3)ccc2NC(=O)c2nc(C#N)c[nH]2)CC1 [Example 44, 4-Cyano-1H-imidazole-2-carboxylic acid [2-(4,4-dimethyl-cyclohex-1-enyl)-4-(cis-1-hydroxy-cis-4-morpholin-4-yl-cyclohexyl)-phenyl]-amide] | – | 2.8 |
| COCCNC1(c2ccc(NC(=O)c3nc(C#N)c[nH]3)c(C3=CCC(C)(C)CC3)c2)CCCCC1 [Example 43, 4-Cyano-1H-imidazole-2-carboxylic acid {2-(4,4-dimethyl-cyclohex-1-enyl)-4-[1-(2-methoxy-ethylamino)-cyclohexyl]-phenyl}-amide] | 2.9 | 111 |

Now from value to compound, other results behind:

| IC50 (c-fms) [nM] | SMILES | IC50 [1] [nM] |
| --- | --- | --- |
| 2.3 | CC1(C)CC=C(c2cc(C3(O)CCCC3)ccc2NC(=O)c2nc(C#N)c[nH]2)CC1 [Example 3, 4-Cyano-1H-imidazole-2-carboxylic acid [2-(4,4-dimethyl-cyclohex-1-enyl)-4-(1-hydroxy-cyclopentyl)-phenyl]-amide] | 11.7 |
| 0.99 | CN1CCN(C2CCC(c3ccc(NC(=O)c4nc(C#N)c[nH]4)c(C4=CCC(C)(C)CC4)c3)CC2)CC1 (stereo not drawn) [Example 28, 4-Cyano-1H-imidazole-2-carboxylic acid {2-(4,4-dimethyl-cyclohex-1-enyl)-4-[4-(4-methyl-piperazin-1-yl)-cyclohexyl]-phenyl}-amide] | 10.2 |
| 20 | CC1(C)CC=C(c2cc(C3(C#N)CCCCC3)ccc2NC(=O)c2nc(C#N)c[nH]2)CC1 [Example 14, 4-Cyano-1H-imidazole-2-carboxylic acid [4-(1-cyano-cyclohexyl)-2-(4,4-dimethyl-cyclohex-1-enyl)-phenyl}-amide] | 150 |
| 9.5 | CC1(C)CC=C(c2cc(C3(C#N)CC3)ccc2NC(=O)c2nc(C#N)c[nH]2)CC1 [Example 4, 4-Cyano-1H-imidazole-2-carboxylic acid [4-(1-cyano-cyclopropyl)-2-(4,4-dimethyl-cyclohex-1-enyl)-phenyl]-amide] | 99 |
| 1.9 | CC1(C)CC=C(c2cc(C3CCC(N4CCOCC4)CC3)ccc2NC(=O)c2nc(C#N)c[nH]2)CC1 (stereo not drawn) [Example 27, 4-Cyano-1H-imidazole-2-carboxylic acid [2-(4,4-dimethyl-cyclohex-1-enyl)-4-(4-morpholin-4-yl-cyclohexyl)-phenyl]-amide] | 16 |
